Test results as given in patent US10765114B2, “4-amino-6-(pyridyl and 2-substitutedphenyl)-picolinates and 6-amino-2-(pyridyl and 2-substitutedphenyl)-pyrimidine-4-carboxylates and their use as herbicides” (Dow AgroSciences LLC, priority 2013, dated 2020).
Like-named read-outs stand apart in the source and are kept apart here.

Assays:
[1] = system: Key Broadleaf Weed and Crop Species; assay: Post-Emergent Test II (Table 5); type: in vivo; details: post-emergence, 336 h; for pest or weed control at 70 g/ha: application rate 70 (kg ai/ha; footnote: g ai/ha); for pest or weed control at 140 g/ha: application rate 140 (kg ai/ha; footnote: g ai/ha)
Summary of the method: (§1)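 Post-emergence greenhouse spray, 1st-2nd true leaf stage; track sprayer, 187 L/ha; acetone/DMSO stock diluted in aqueous acetone/IPA/DMSO with Atplus 411F and Triton X-155; rates 1× to 1/16×; subirrigated; visual injury 0 (none) to 100% (complete kill) at 14 days.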

[2] = system: Key Grass and Sedge Weeds as well as Grass Crops; assay: Post-Emergent Test II (Table 6); type: in vivo; details: post-emergence, 336 h, 14 days after application; for pest or weed control at 70 g/ha: 70 g ai/ha; for pest or weed control at 140 g/ha: 140 g ai/ha
Summary of the method: as §1

[3] = Abutilon theophrasti, ABUTH: velvetleaf (Abutilon theophrasti), read-out: Visual Growth Reduction (%) 14 Days After Application ABUTH
[4] = Amaranthus retroflexus, AMARE: redroot pigweed (Amaranthus retroflexus), read-out: Visual Growth Reduction (%) 14 Days After Application AMARE
[5] = Brassica napus, BRSSS: oilseed rape, canola (Brassica napus), read-out: Visual Growth Reduction (%) 14 Days After Application BRSSS
[6] = Chenopodium album, CHEAL: lambsquarters (Chenopodium album), read-out: Visual Growth Reduction (%) 14 Days After Application CHEAL
[7] = Euphorbia heterophylla, EPHHL: wild poinsettia (Euphorbia heterophylla), read-out: Visual Growth Reduction (%) 14 Days After Application EPHHL
[8] = Helianthus annuus, HELAN: sunflower (Helianthus annuus), read-out: Visual Growth Reduction (%) 14 Days After Application HELAN
[9] = Viola tricolor, VIOTR: wild pansy (Viola tricolor), read-out: Visual Growth Reduction (%) 14 Days After Application VIOTR
[10] = CYPSS, read-out: Visual Growth Reduction (%) 14 Days After Application CYPSS
[11] = DIGSA: crabgrass (Digitaria sanguinalis), read-out: Visual Growth Reduction (%) 14 Days After Application DIGSA
[12] = ECHSS, read-out: Visual Growth Reduction (%) 14 Days After Application ECHSS
[13] = ORYSS (crop), read-out: Visual Growth Reduction (%) 14 Days After Application ORYSS
[14] = SETFA: giant foxtail (Setaria faberi), read-out: Visual Growth Reduction (%) 14 Days After Application SETFA
[15] = SORVU: grain sorghum (Sorghum vulgare), read-out: Visual Growth Reduction (%) 14 Days After Application SORVU
[16] = TRZSS (crop), read-out: Visual Growth Reduction (%) 14 Days After Application TRZSS
[17] = ZEAMX: maize, corn (Zea mays), read-out: Visual Growth Reduction (%) 14 Days After Application ZEAMX

| Compound | pest or weed control at 70 g/ha [1, 3] [%] | pest or weed control at 140 g/ha [1, 3] [%] | pest or weed control at 70 g/ha [1, 4] [%] | pest or weed control at 140 g/ha [1, 4] [%] | pest or weed control at 70 g/ha [1, 5] [%] | pest or weed control at 140 g/ha [1, 5] [%] | pest or weed control at 70 g/ha [1, 6] [%] | pest or weed control at 140 g/ha [1, 6] [%] | pest or weed control at 70 g/ha [1, 7] [%] | pest or weed control at 140 g/ha [1, 7] [%] | pest or weed control at 70 g/ha [1, 8] [%] | pest or weed control at 140 g/ha [1, 8] [%] | pest or weed control at 70 g/ha [1, 9] [%] | pest or weed control at 140 g/ha [1, 9] [%] | pest or weed control at 70 g/ha [2, 10] [%] | pest or weed control at 140 g/ha [2, 10] [%] | pest or weed control at 70 g/ha [2, 11] [%] | pest or weed control at 140 g/ha [2, 11] [%] | pest or weed control at 70 g/ha [2, 12] [%] | pest or weed control at 140 g/ha [2, 12] [%] | other results |
| --- | --- | --- | --- | --- | --- | --- | --- | --- | --- | --- | --- | --- | --- | --- | --- | --- | --- | --- | --- | --- | --- |
| COc1c(-c2cc(N)c(Cl)c(C(=O)O)n2)ccc(Cl)c1F [Compound 84, 4-amino-3-chloro-6-(4-chloro-3-fluoro-2-methoxyphenyl)picolinic acid] | 95 to 100 | 95 to 100 | 95 to 100 | 95 to 100 | 95 to 100 | 95 to 100 | 95 to 100 | 95 to 100 | 0 to 29 | 0 to 29 | 85 to 94 | 85 to 94 | 95 to 100 | 95 to 100 | 0 to 29 | 0 to 29 | 0 to 29 | 0 to 29 | 0 to 29 | 0 to 29 | pest or weed control at 70 g/ha [2, 13]: 0 to 29%; pest or weed control at 140 g/ha [2, 13]: 0 to 29%; pest or weed control at 70 g/ha [2, 14]: 0 to 29%; pest or weed control at 140 g/ha [2, 14]: 0 to 29%; pest or weed control at 70 g/ha [2, 15]: 0 to 29%; pest or weed control at 140 g/ha [2, 15]: 0 to 29%; pest or weed control at 70 g/ha [2, 16]: 0 to 29%; pest or weed control at 140 g/ha [2, 16]: 0 to 29%; pest or weed control at 70 g/ha [2, 17]: 0 to 29%; pest or weed control at 140 g/ha [2, 17]: 0 to 29% |
| C=Cc1c(-c2cc(N)c(Cl)c(C(=O)O)n2)ccc(Cl)c1F [Compound 89, 4-Amino-3-chloro-6-(4-chloro-3-fluoro-2-vinylphenyl)picolinic acid] | 85 to 94 | 95 to 100 | 95 to 100 | 95 to 100 | 95 to 100 | 95 to 100 | 95 to 100 | 95 to 100 | 30 to 44 | 45 to 59 | 95 to 100 | 95 to 100 | 45 to 59 | 60 to 74 | 0 to 29 | 0 to 29 | 30 to 44 | 75 to 84 | 75 to 84 | 85 to 94 | pest or weed control at 70 g/ha [2, 13]: 0 to 29%; pest or weed control at 140 g/ha [2, 13]: 0 to 29%; pest or weed control at 70 g/ha [2, 14]: 0 to 29%; pest or weed control at 140 g/ha [2, 14]: 0 to 29%; pest or weed control at 70 g/ha [2, 15]: 0 to 29%; pest or weed control at 140 g/ha [2, 15]: 0 to 29%; pest or weed control at 70 g/ha [2, 16]: 0 to 29%; pest or weed control at 140 g/ha [2, 16]: 0 to 29%; pest or weed control at 70 g/ha [2, 17]: 0 to 29%; pest or weed control at 140 g/ha [2, 17]: 0 to 29% |
| COC(=O)c1nc(-c2ccc(Cl)c(F)c2C(=O)O)cc(N)c1Cl [Compound 91, 6-(4-amino-5-chloro-6-(methoxycarbonyl)pyridin-2-yl)-3-chloro-2-fluorobenzoic acid] | 0 to 29 | 0 to 29 | 0 to 29 | 0 to 29 | 0 to 29 | 0 to 29 | 0 to 29 | 0 to 29 | 0 to 29 | 0 to 29 | 0 to 29 | 0 to 29 | 0 to 29 | 0 to 29 | 0 to 29 | 0 to 29 | 0 to 29 | 0 to 29 | 0 to 29 | 0 to 29 | pest or weed control at 70 g/ha [2, 13]: 0 to 29%; pest or weed control at 140 g/ha [2, 13]: 0 to 29%; pest or weed control at 70 g/ha [2, 14]: 0 to 29%; pest or weed control at 140 g/ha [2, 14]: 0 to 29%; pest or weed control at 70 g/ha [2, 15]: 0 to 29%; pest or weed control at 140 g/ha [2, 15]: 0 to 29%; pest or weed control at 70 g/ha [2, 16]: 0 to 29%; pest or weed control at 140 g/ha [2, 16]: 0 to 29%; pest or weed control at 70 g/ha [2, 17]: 0 to 29%; pest or weed control at 140 g/ha [2, 17]: 0 to 29% |
